Data on three compounds can be found in patent publication US6500858B2, “Taxoid anti-tumor agents and pharmaceutical compositions thereof” (The Research Foundation of the state University of New York, priority 1994, dated 2002).

What is called IC50 is the point on the concentration scale where inhibition reaches its midpoint. One may read the T/C as the ratio of treated to control.

“And” between values parts separate entries of the source, which are not always exact repeats. Identical values can stand only once. Like-named read-outs stand apart in the source and are kept apart here.

One series concerns A2780. The experiment in a line: growth inhibition by cell counts, 72 h. Type of series: cell-based, human. The following applies: read-out: A2780 IC50. The method, then:
(§1) Cells were plated in 6-well flat bottom plates (Falcon, Lincoln Park, N.J.) at a concentration of 10^5 cells ml in complete medium. After 24 h, the medium was replaced with media containing the test substances. Control cells were treated with vehicle alone. Cells were then washed twice and cultures maintained up to 72 h in complete medium (without removing the test substances). At this time point quadruplicate counts of triplicate cultures were performed. To calculate the growth inhibition effect, three independent experiments were performed for each test substance/cell line. The IC50 values were then calculated by fitting the concentration-effect curve data obtained in the three experiments with the sigmoid-Emax model using nonlinear regression, weighted by the reciprocal of the square of the predicted effect according to the method of Motulsky, H. J. and Ransnas, L. A., FASEB J. 1:365-74 (1987).

The subject of a further series is DU-145. The experiment in a line: growth inhibition by cell counts, 72 h. Type of series: cell-based, human. The following applies: read-out: DU-145 IC50. As to the method: as §1
The test system of another series is MCF-7 ADRr. The experiment in a line: growth inhibition by cell counts, 72 h. Type of series: cell-based, human. Conditions: read-out: MCF-7 ADRr IC50. The method, then: as §1
The next series relates to MCF-7 wt. The experiment in a line: growth inhibition by cell counts, 72 h. Conditions: read-out: MCF-7 wt IC50. Type of series: cell-based, human. As to the method:
as §1

The next series has as its system NCI-H23. Description: growth inhibition by cell counts, 72 h. Conditions: read-out: NCI-H23 IC50. It is filed as cell-based, human. The method, then:
as §1

A further series concerns PC-3. Description: growth inhibition by cell counts, 72 h. Type of series: cell-based, human. Conditions: 72 h. As to the method:
as §1

A further series has as its system WiDr. Description: growth inhibition by cell counts, 72 h. The following applies: read-out: WiDr IC50. Type of series: cell-based, human. The method, then: as §1
Another series deals with B16 melanoma. The experiment in a line: intravenous administration to mice bearing B16 melanoma. It is filed as in vivo, B6D2F1 female mice. On the set-up: key to Responses (activity rating): A = active; HA = highly active. As to the method: (§2) The efficacy of the test compounds on solid tumors in vivo was determined experimentally according to the following general experimental protocol:
(§3) The mice subjected to the experiment were subcutaneously grafted bilaterally with 30 to 60 mg of a tumor fragment on day zero. Mice bearing tumors were mixed before being subjected to the various treatments and controls. In the case of treatment of advanced tumors, tumors were allowed to develop to the desired size, and mice having insufficiently developed tumors were eliminated. The selected mice were distributed at random to undergo the treatments and controls. Mice not bearing tumors may also be subjected to the same treatments as the tumor-bearing mice in order to be able to dissociate the toxic effect from the specific effect on the tumor. Chemotherapy generally began from 3 to 22 days after grafting, depending on the type of tumor, and the mice were observed every day. The different mice groups were weighed 3 or 4 times a week until the maximum weight loss was attained (nadir), and the groups were then weighed at least once a week until the end of the trial.
(§4) The tumors were measured 2 or 3 times a week until the tumor reached approximately 2 grams, or until the animal died, if this occurred before the tumor reached 2 grams. The mice were autopsied when sacrificed.
(§5) The antitumor activity was determined in accordance with different parameters recorded such as dose (mg/kg), mode of administration, time of administration, cytotoxicity, toxicity and log10 cell kill.
SB-T-1213, SB-T-121303, SB-T-121304 and SB-T-1250 were evaluated in B6D2F1 female mice bearing B16 melanoma. The general experimental protocol was as described above. The compounds evaluated were administered intravenously (iv) on an intermittent schedule on days 3, 5, and 7 post tumor implantation. With the exception of SB-T-1250, solutions of the compounds for administration were prepared in 5% ethanol, 5% polysorbate 80, and 90% glucose 5% water.

For series [1], the system named is docetaxel-resistant melanoma, B16/TXT. The experiment in a line: intravenous administration to B16/TXT melanoma-bearing mice. It is filed as in vivo, B6D2F1 female mice. Also noted: key to Responses (activity rating): A = active; HA = highly active. As to the method: as §2, §3, §4, §5
SB-T-1213, SB-T-121303, SB-T-121304 and SB-T-1250 were evaluated in B6D2F1 female mice bearing the docetaxel-resistant melanoma, B16/TXT. The general experimental protocol was as described above. The compounds evaluated were administered intravenously on an intermittent schedule on days 3, 5, and 7 post tumor implantation.

A further series deals with A121 (ovarian carcinoma). The experiment in a line: tumor cell growth inhibition (SRB, 72 h drug exposure). Type of series: cell-based, human. Conditions: Homo sapiens, A121; 72 h drug exposure. As to the method:
(§6) Lower numbers indicate higher potency. […] The data represent the mean values of at least three separate experiments. Lower numbers indicate greater activity.
(§7) Assessment of cell growth inhibition was determined according to the methods of Skehan et al., J. Nat. Cancer Inst. […] Briefly, cells were plated between 400 and 1200 cells/well in 96 well plates and incubated at 37° C. for 15-18 h prior to drug addition to allow attachment of cells. […] After a 72 h incubation, […] of ice-cold 50% TCA was added to each well and incubated for 1 h at 4° C. Plates were then washed 5 times with tap water to remove TCA, low-molecular-weight metabolites and serum proteins. Sulforhodamine B (SRB) (0.4%, […]) was added to each well. Following a 5 min incubation at room temperature, plates were rinsed 5 times with 0.1% acetic acid and air dried. […] Optical density was measured at 570 nm.

Series [2] has as its system A549 (non-small cell lung carcinoma). The description is as above. It is filed as cell-based, human. The following applies: Homo sapiens, A549; 72 h drug exposure; read-out: A549 (NSCLC) IC50. As to the method: as §6, §7
The next series deals with HT-29 (colon carcinoma). The description is as above. Type of series: cell-based, human. Conditions: Homo sapiens, HT-29; 72 h drug exposure. The method, then:
as §6, §7

The subject of a further series is MCF7 (mammary carcinoma). The series is described as above. It is filed as cell-based, human. The following applies: 72 h drug exposure. As to the method:
as §6, §7

The test system of series [3] is LCC6-WT: human breast carcinoma. The experiment in a line: cytotoxicity assay of second generation taxoids. Type of series: cell-based. The following applies: 72 h drug exposure, read-out: LCC6-WT IC50. The method, then:
A cytotoxicity assay of these new second generation taxoids was performed on human breast cancer cell lines, LCC6-WT and LCC-MDR, and selected taxoids were also assayed for their potency against MCF7 and MCF7-R (Skehan, P., et al., J. Nat. Cancer Inst. 1990, 82, 1107-1112).

The subject of series [4] is LCC6-MDR: MDR1 transduced line. The experiment in a line: cytotoxicity assay of second generation taxoids. It is filed as cell-based, human.
For series [5], the system named is MCF7-R (mammary carcinoma cells 180-fold resistant to adriamycin). Description: tumor cell growth inhibition (SRB, 72 h drug exposure). It is filed as cell-based, human. The following applies: 72 h drug exposure, Table 3. The method, then: as §6, §7

On to “3′-dephenyl-3′-(2,2-dimethyl-1-cyclopropyl)-10-acetyldocetaxel [SB-T-1250]”, for which the IC50 stood at 3.03 nM in the series with A2780 (72 h); 0.6 nM in the series with DU-145 (72 h); 48 nM with MCF-7 ADRr (72 h); 2.3 nM in the series on MCF-7 wt (72 h); 1.6 nM in the series on NCI-H23 (72 h); 0.7 nM with PC-3. The IC50 in the series with WiDr came to 0.5 nM. Also, the “Responses (activity rating)” value (in the series on B16 melanoma (4.5 mg/kg/adm.); in series [1] (7.3 mg/kg/adm.)) was “A” each time. Moreover, the T/C was 23% in the series on B16 melanoma (4.5 mg/kg/adm., days 3, 5, 7); 152% in [1] (2.8 mg/kg/adm., days 3, 5, 7); 108% in series [1] (4.5 mg/kg/adm., days 3, 5, 7); 41% in [1] (7.3 mg/kg/adm., days 3, 5, 7). The log10 cell kill in the series on B16 melanoma (4.5 mg/kg/adm., days 3, 5, 7) was determined as 1.2; in series [1] (7.3 mg/kg/adm., days 3, 5, 7), 1.1. The “% body weight loss at nadir” value with B16 melanoma (4.5 mg/kg/adm., days 3, 5, 7, 4.5 mg/kg) is 12.5% and 12.5 (3) %; in [1] (7.3 mg/kg/adm., days 3, 5, 7, 7.3 mg/kg), 16.7% and 16.7 (4) %. Besides, the “drug related deaths (DD)” value with B16 melanoma (7.3 mg/kg/adm., days 3, 5, 7) was “⅕”; with B16 melanoma (11.8 mg/kg/adm., days 3, 5, 7), “⅗”; in the series on B16 melanoma (19 mg/kg/adm., days 3, 5, 7) it was 100%. Further, the highest nontoxic dose in the series with B16 melanoma (days 3, 5, 7) amounted to 4.5 mg/kg/adm; in [1] (days 3, 5, 7), 7.3 mg/kg/adm.

As to `CC(=O)O[C@@]12CO[C@@H]1C[C@H](O)[C@@]1(C)C(=O)[C@H](O)C3=C(C)[C@@H](OC(=O)[C@H](O)[C@@H](NC(=O)OC(C)(C)C)c4ccccc4)C[C@@](O)([C@@H](OC(=O)c4ccccc4)[C@H]21)C3(C)C` [Docetaxel, docetaxel, reference compound], the IC50 in the series with A121 (ovarian carcinoma) was 1.2 nM; in series [2] it was 1 nM; in the series on HT-29 (colon carcinoma) it was 1.2 nM; with MCF7 (mammary carcinoma) (Homo sapiens, MCF7, Table 1, read-out: MCF7 (breast) IC50) it was 1 nM; in the series with MCF7 (mammary carcinoma) (Homo sapiens, MCF7, Table 3, read-out: MCF7 IC50), 1 nM; in [3] (Homo sapiens), 1 nM. The IC50 in series [4] (Homo sapiens, LCC6MDR, 72 h drug exposure, read-out: LCC6-MDR IC50) turned out to be 120 nM; in the series on A2780 (Homo sapiens, A2780, 72 h), 4.95 nM; in the series on DU-145 (Homo sapiens, DU-145, 72 h), 0.8 nM; with MCF-7 ADRr (Homo sapiens, MCF7, 72 h) it was 970 nM; with MCF-7 wt (Homo sapiens, MCF7, 72 h), 3.6 nM; in the series on NCI-H23 (Homo sapiens, NCI-H23, 72 h) it was 3 nM. In addition, the IC50 in the series with WiDr (Homo sapiens, WiDr) was 2.3 nM.

Regarding `CCC(=O)OC1C(=O)C2(C)C(O)CC3OCC3(OC(C)=O)C2C(OC(=O)c2cccc(N=[N+]=[N-])c2)C2(O)CC(OC(=O)C(O)C(C=C(C)C)NC(=O)OC(C)(C)C)C(C)=C1C2(C)C` (stereo not drawn) [Taxoid 7o, 3′-Dephenyl-3′-(2-methylprop-1-enyl)-2-debenzoyl-2-(3-azidobenzoyl)-10-propanoyldocetaxel], the IC50 was 0.9 nM in the series with MCF7 (mammary carcinoma) (Table 3, read-out: MCF7 IC50); 1.1 nM in series [5]; 0.9 nM in [3]. In addition, the “activity against drug-resistant vs drug-sensitive cell lines, in words” value in [4] (LCC6 and MCF7 pairs) is “virtually no difference in activity”.
